# In US20020068749A1, “AIDS REMEDY” (priority 1996, published 2002):
# Experiments:
# [1] = Change of concentration in plasma over time after oral administration to rats (KNI-272 with Indinavir or Nelfinavir); conditions: for AUC: rat, plasma, po, 40 mg/kg, AUC value of Indinavir
# Protocol: In this example, the change in concentration in blood of KNI-272 over time when the KNI-272 was orally administered in combination with Indinavir, i.e. the change in the concentration of a non-binding type of drug in plasma over time, was measured to evaluate the effect of drug interactions on fluctuations of dynamics in vivo. A commercially available Indinavir for oral administration, CRIXIVAN™ (manufactured by Merck), was used after dissolving Indinavir sulfate in a prescribed concentration. As KNI-272, a suspension prepared from a fine powder of KNI-272 was used. Rats were used as test animals. […] In addition, each compound was individually administered to control groups to evaluate the dynamics in vivo. The animals were fasted for 16 hours before administration. The measurement of the change in the non-binding drug concentration in plasma over time was carried out according to a conventional method using blood samples collected from the test animals.
# The method of evaluation was applied to the above-mentioned system of Indinavir and KNI-272 was followed. […] In this example, a dosage of 50 mg/kg was selected for both Nelfinavir and KNI-272.
# HIV Wild strain (IIIB) = experiment: Anti-virus activity IC50 against wild strain; format: cell-based; conditions: Wild strain (IIIB)
# KNI-272 resistant strain = experiment: microbe, parasite or virus in culture; format: cell-based, HIV
# Excerpt: (§1) A drug resistant strain virus is a resistance strains induced in a cell culture system in vitro while maintaining infection in the presence of each medicament through generations.
# [2] = tested on: Ritonavir resistant strain; experiment: Anti-virus activity IC50 against Ritonavir resistant strain; format: cell-based, HIV; conditions: Ritonavir resistant strain
# [3] = tested on: IIIB strain of HIV-1 in CEM-SS cells; experiment: Measurement of anti-HIV activity in vitro (XTT method, control of cellular denaturalization due to HIV infection); format: cell-based
# Protocol: An increase in the synergistic anti-virus activity in the combined use of KNI-272 and Saquinavir is shown by a specific experimental example. The anti-virus activity was evaluated as the capability of controlling generation of infectious virus particles in vitro. The effect of cell extinction to HIV infection was calculated when Saquinavir methanesulfonate and KNI-272 respectively or both were added to a culture liquid, to determine the concentration region where a synergistic increase in the anti-virus activity in the combined use of the two compounds is conspicuous. Measurement of the anti-virus activity in vitro was carried out according to the following procedure. In the description hereinafter the concentration of methanesulfonate is indicated as the concentration converted into Saquinavir. The concentration of KNI-272 is indicated as the concentration of the compound itself.
# A IIIB strain of HIV-1 was used as an HIV wild strain and CEM-SS cells were used as infected cells in the above-mentioned culture. The amount of HIV sufficient to kill all CEM-SS cells 6 days after inoculation (multiplicy of infection, MOI of 0.01-0.05) was determined and this amount of HIV was added. A 96 well micro-titre plate was used to inoculate 5×10^3 CEM-SS cells per well in this case. At the time of inoculation of cells, a test compound was added to the culture medium to a prescribed concentration. Three specimens were used for each test level. The following controls were used (1) as calorimetric controls: a sample with only a test compound added to the culture medium, (2) as a cytotoxic control for a test compound: a sample with only cells and the test compound added to the culture medium, (3) as a virus control: a sample with the cells inoculated with only a virus, and (4) as a cell survival control, a sample consisting only of cells. In addition, AZT and DDC which are compounds with a known anti-HIV activity were used as positive controls. After the cells were added, they were inoculated with the infecting virus, followed by incubation at 37° C.for 6 days. Cellular denaturalization due to HIV infection was colorimetrically measured for each well. Employing the colorimetry, was the metabolism from XTT Tetrazolium to XTT Formazan was evaluated. This colorimetry is called the XTT method (see Weislow et al., Journal of the National Cancer Institute 81, 577-586 (1989)). After the above-mentioned incubation, a prescribed amount of XTT was added to each well and incubation was continued for a further four hours at 37° C. to measure the amount of XTT Formazan produced by metabolism by means of calorimetric quantitation.
# The anti-HIV activity for each experimental level was calculated by comparing the number of undenatured cells measured by the above-mentioned assay with the corresponding number of cells in the four control groups. Specifically, the proportion of cellular denaturalization due to HIV infection controlled by the addition of the test compound was calculated. A systematic deviation between the several experiments was corrected based on the results of AZT and ddC used as positive controls.
# In this example, 0 ng/ml and several concentrations in the range of 0.625-10.0 ng/ml of Saquinavir methanesulfonate and 0 ng/ml and several concentrations in the range of 0.313-80.0 ng/ml of KNI-272 were used. The results (anti-HIV activities) obtained under these conditions using either one of these medicaments or both medicaments in combination are shown in Table 1.
# With regard to this concentration region wherein no synergistic increase can be seemingly identified, a similar evaluation was carried out adding a larger amount of HIV to qualitatively evaluate the presence or absence of a synergistic effect. […] This affords qualitative results rather than quantitative results.
# An increase in the synergistic anti-virus activity in the combined use of KNI-272 and Ritonavir is shown by a specific experimental example. […]
# [4] = Dynamics in vivo (concentration in plasma over time) of KNI-272 and Ritonavir in dogs
# [5] = tested on: Indinavir resistant strain; experiment: Anti-virus activity IC50 against Indinavir resistant strain; format: cell-based, HIV; conditions: Human immunodeficiency virus 1, read-out: Anti-virus activity IC50
# Excerpt: as §1
# [6] = Indinavir 40 mg/kg + KNI-272 40 mg/kg p.o. at the same time
# [7] = Human immunodeficiency virus 1, read-out: Anti-virus activity IC50
compound,measurement,setting,value
"Cc1c(O)cccc1C(=O)N[C@@H](CSc1ccccc1)[C@H](O)CN1C[C@H]2CCCC[C@H]2C[C@H]1C(=O)NC(C)(C)C (relative stereo) [Nelfinavir, [3S-[2(2S*, 3S*), 3α, 4α, 8aβ]]-N-1,1-dimethylethyl-decahydro-2-[2-hydroxy-3-[(3-hydroxy-2-methylbenzoyl)amino]-4-(phenylthio)butyl]-3-isoquinolinecarboxamide, reference compound]",AUC value for Nelfinavir,[1]; Nelfinavir 50 mg/kg p.o. only,130 µg·min/mL
same,AUC value for Nelfinavir,[1]; Nelfinavir 50 mg/kg p.o. simultaneously with KNI-272 50 mg/kg,215 µg·min/mL
same,increase in AUC value for Nelfinavir,[1]; Nelfinavir 50 mg/kg with KNI-272 50 mg/kg vs alone,~1.6 times
same,Anti-virus activity IC50,HIV Wild strain (IIIB),0.007 µg/mL
same,Anti-virus activity IC50,KNI-272 resistant strain; KNI-272 resistant strain,0.030 µg/mL
same,Anti-virus activity IC50,[2],0.124 µg/mL
"CC(C)c1nc(CN(C)C(=O)NC(C(=O)N[C@@H](Cc2ccccc2)C[C@H](O)[C@H](Cc2ccccc2)NC(=O)OCc2cncs2)C(C)C)cs1 (relative stereo) [Ritonavir, [5S-(5R*, 8R*, 10R*,11R*)]-10-hydroxy-2-methyl-5-(1-methylethyl)-1-[2-(1-methylethyl)-4-thiazolyl]-3,6-dioxo-8,11-bis(phenylmethyl)-2,4,7,12-tetraaza-tridecane-13-hydroxyacid 5-thiazolylmethyl ester, reference compound]",Anti-HIV activity (%),[3]; Ritonavir 1.25 ng/ml alone,2.0%
same,Anti-HIV activity (%),[3]; Ritonavir 2.5 ng/ml alone,2.3%
same,Anti-HIV activity (%),[3]; Ritonavir 5.0 ng/ml alone,0.5%
same,Anti-HIV activity (%),[3]; Ritonavir 10.0 ng/ml alone,8.9%
same,influence of combined use of KNI-272 on the dynamics in vivo of Ritonavir,"[4]; KNI-272 administered immediately after Ritonavir, dogs",no apparent influence
same,MRT value (index of the half-life of concentration in blood),[4]; medicaments individually administered,≥ 180 minutes and more than 180 minutes
"CC(C)(C)NC(=O)[C@@H]1CN(Cc2cccnc2)CCN1C[C@@H](O)C[C@@H](Cc1ccccc1)C(=O)N[C@H]1c2ccccc2C[C@H]1O [Indinavir, [1(1S, 2R),5(S)]-2,3,5-trideoxy-N-(2,3-dihydro-2-hydroxy-1H-indane-1-yl)-5-[2-(1,1-dimethylethyl)aminocarbonyl-4-(3-pyridinylmethyl)-1-piperazinyl]-2-(phenylmethyl)-D-erythro-pentonamide, reference compound]",increase in maximum concentration in blood value (Cmax) of Indinavir,[1]; [6],as much as twice
same,increase in the AUC value of Indinavir,[1]; [6],almost two times
same,AUC,[1]; Indinavir 40 mg/kg p.o. individually,17200 ng·h/mL
same,AUC,[1]; Indinavir 40 mg/kg p.o. together with KNI-272 40 mg/kg,44300 ng·h/mL
same,IC50,HIV Wild strain (IIIB); [7],0.009 µg/mL
same,IC50,KNI-272 resistant strain; [7],0.03 µg/mL
same,IC50,[5],0.576 µg/mL
